The subject of test [1] is Group I or Group III receptors. The following applies: at sub-mM concentrations; cited from earlier work.
The target in a further test is mGluR3 (Homo sapiens, UniProt Q14832). The following applies: read-out: IC50 against mGluR3; cited from earlier work.
The next test deals with mGluR2 (Homo sapiens, UniProt Q14416). The following applies: read-out: IC50 against mGluR2; cited from earlier work.
Test [2] concerns human neural stem cells (hNSCs).
Source text: (§1) Mitogen-free test media with a positive control for neuronal differentiation was used along with basal media without growth factors as a negative control.
(§2) A positive control for neuronal differentiation was used along with basal media without growth factors as a negative control.
(§3) Human neural stem cells (hNSCs) were isolated and grown in monolayer culture, plated, treated with varying concentrations of rosiglitazone and/or N-acetylcysteine (test compounds), and stained with TUJ-1 antibody, as described above. Mitogen-free test media with a positive control for neuronal differentiation was used along with basal media without growth factors as a negative control.
(§4) Human neural stem cells (hNSCs) were isolated and grown in monolayer culture, plated, treated with varying concentrations of ciglitazone and/or N-acetylcysteine (test compounds), and stained with TUJ-1 antibody, as described above. Mitogen-free test media with a positive control for neuronal differentiation was used along with basal media without growth factors as a negative control.
(§5) Human neural stem cells (hNSCs) were isolated and grown in monolayer culture, plated, treated with varying concentrations of pioglitazone and/or N-acetylcysteine (test compounds), and stained with TUJ-1 antibody, as described above. Mitogen-free test media with a positive control for neuronal differentiation was used along with basal media without growth factors as a negative control.
(§6) Human neural stem cells (hNSCs) were isolated and grown in monolayer culture, plated, treated with varying concentrations of troglitazone and/or N-acetylcysteine (test compounds), and stained with TUJ-1 antibody, as described above. Mitogen-free test media with a positive control for neuronal differentiation was used along with basal media without growth factors as a negative control.
(§7) The presence of synergy was determined by use of a combination index (CI). […] The CI is a quantitative measure of the nature of drug interactions, comparing the EC50's of two compounds, when each is assayed alone, to the EC50 of each compound when assayed in combination. The combination index (CI) is equal to the following formula:
(§8) where C1 and C2 are the concentrations of a first and a second compound, respectively, resulting in 50% activity in neuronal differentiation when assayed in combination; and IC1 and IC2 are the concentrations of each compound resulting in 50% activity when assayed independently.
In another test the test system is mGlu7 and mGlu8. The following applies: at higher concentrations (e.g., above 1 μM); cited from earlier work.
Test [3] concerns KA, AMPA, and NMDA iGlu receptors. The following applies: cited from earlier work.
In a further test the target is human mGlu2 receptors (Homo sapiens, UniProt Q14416). The settings on record: low nanomolar range, e.g. below about 10 nM, or below about 5 nM; read-out: EC50 against human mGlu2 receptors in vitro; cited from earlier work.
human mGlu2 receptors, sequence (Q14416 19-872): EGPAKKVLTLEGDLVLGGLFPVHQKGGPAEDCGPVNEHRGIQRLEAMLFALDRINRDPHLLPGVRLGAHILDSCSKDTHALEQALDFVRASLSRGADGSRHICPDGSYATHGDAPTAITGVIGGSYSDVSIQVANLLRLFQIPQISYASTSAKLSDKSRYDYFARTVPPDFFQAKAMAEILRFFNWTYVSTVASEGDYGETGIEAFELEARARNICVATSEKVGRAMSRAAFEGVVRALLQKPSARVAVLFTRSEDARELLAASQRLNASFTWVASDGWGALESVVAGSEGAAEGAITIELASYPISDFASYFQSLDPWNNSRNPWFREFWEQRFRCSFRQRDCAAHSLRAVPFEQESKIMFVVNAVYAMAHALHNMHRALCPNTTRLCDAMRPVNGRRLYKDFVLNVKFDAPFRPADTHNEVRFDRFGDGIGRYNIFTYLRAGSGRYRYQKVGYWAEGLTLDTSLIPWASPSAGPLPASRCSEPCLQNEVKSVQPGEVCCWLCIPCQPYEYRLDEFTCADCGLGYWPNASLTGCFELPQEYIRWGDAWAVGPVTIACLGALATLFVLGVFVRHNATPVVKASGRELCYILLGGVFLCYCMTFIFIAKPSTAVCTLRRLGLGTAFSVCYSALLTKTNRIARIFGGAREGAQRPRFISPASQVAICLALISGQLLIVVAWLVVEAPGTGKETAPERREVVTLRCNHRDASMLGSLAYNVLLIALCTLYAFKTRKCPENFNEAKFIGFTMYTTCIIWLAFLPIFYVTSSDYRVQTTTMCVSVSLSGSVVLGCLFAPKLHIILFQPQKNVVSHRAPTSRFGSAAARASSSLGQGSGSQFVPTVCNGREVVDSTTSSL
The target in the next test is human mGlu3 receptors (Homo sapiens, UniProt Q14832). The settings on record: low nanomolar range, e.g. below about 10 nM, or below about 5 nM; read-out: EC50 against human mGlu3 receptors in vitro; cited from earlier work.
human mGlu3 receptors, sequence (Q14832 23-879): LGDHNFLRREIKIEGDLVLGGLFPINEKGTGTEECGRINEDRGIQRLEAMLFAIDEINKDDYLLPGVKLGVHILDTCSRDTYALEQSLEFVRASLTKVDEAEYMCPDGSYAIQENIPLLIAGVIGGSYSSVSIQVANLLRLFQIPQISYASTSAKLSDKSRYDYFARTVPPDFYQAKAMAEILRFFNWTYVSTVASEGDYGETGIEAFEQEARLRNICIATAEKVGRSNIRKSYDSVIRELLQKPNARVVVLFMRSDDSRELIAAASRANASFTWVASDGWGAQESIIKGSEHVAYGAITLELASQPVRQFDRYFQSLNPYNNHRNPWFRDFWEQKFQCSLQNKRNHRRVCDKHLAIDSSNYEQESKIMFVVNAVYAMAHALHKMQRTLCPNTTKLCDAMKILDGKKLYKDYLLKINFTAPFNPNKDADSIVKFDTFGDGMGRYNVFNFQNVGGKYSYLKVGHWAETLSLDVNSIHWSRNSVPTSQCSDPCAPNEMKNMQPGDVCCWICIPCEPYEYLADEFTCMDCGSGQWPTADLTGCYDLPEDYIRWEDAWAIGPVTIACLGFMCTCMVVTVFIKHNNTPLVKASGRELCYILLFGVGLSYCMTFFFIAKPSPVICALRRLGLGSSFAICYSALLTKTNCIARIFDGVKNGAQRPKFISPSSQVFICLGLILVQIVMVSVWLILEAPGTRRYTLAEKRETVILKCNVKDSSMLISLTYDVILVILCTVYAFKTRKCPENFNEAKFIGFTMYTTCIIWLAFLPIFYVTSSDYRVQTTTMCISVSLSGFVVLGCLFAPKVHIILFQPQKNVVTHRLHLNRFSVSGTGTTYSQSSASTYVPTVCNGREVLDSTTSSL
In test [4] the test system is human neural stem cells (hNSCs). Nature of the test: Neuronal differentiation of human neural stem cells (TUJ-1 staining). The settings on record: read-out: EC50, neuronal differentiation, extrapolated, agent alone, extrapolated based on the data.
Source text: as §1, §2, §3, §4, §5, §6, §7, §8

Molecules are shown by their SMILES. Read-outs that look alike come from different tables or passages of the source. Some results are limits rather than exact numbers.

mGluR2, sequence (Q14416 19-872): as the sequence (Q14416 19-872) above
mGluR3, sequence (Q14832 23-879): as the sequence (Q14832 23-879) above

The term IC50 denotes the point on the concentration scale where inhibition reaches its midpoint. As for `NC1(C(=O)O)CCc2cc(P(=O)(O)O)ccc21` (racemic) [APICA, (RS)-1-amino-5-phosphonoindan-1-carboxylic acid], the “activity against Group I or Group III receptors” value in test [1] was “no appreciable activity”. Further, the IC50 at mGluR3 and on mGluR2 was roughly 30 µM in each case.

As usually defined, the EC50 is the concentration giving half of the maximal effect. With `CCc1ccc(CCOc2ccc(CC3SC(=O)NC3=O)cc2)nc1` (racemic) [pioglitazone, (RS)-5-(4-[2-(5-ethylpyridin-2-yl)ethoxy]benzyl)-thiazolidine-2,4-dione], the half-maximal effective concentration (EC50) in test [2] is 0.348 µM.

`CN(CCOc1ccc(CC2SC(=O)NC2=O)cc1)c1ccccn1` (racemic) [rosiglitazone, (RS)-5-[4-(2-[methyl(pyridin-2-yl)amino]ethoxy)-benzyl]thiazolidine-2,4-dione] registered an EC50 in test [2] of 1.8 µM.

In the case of `N[C@](CC1c2ccccc2Oc2ccccc21)(C(=O)O)[C@H]1C[C@@H]1C(=O)O` [LY341495, (2S)-2-amino-2-(1S,2S-2-carboxycycloprop-1-yl)-3-(xanth-9-yl) propanoic acid], the “activity against mGlu7 and mGlu8” value in the test on mGlu7 and mGlu8 is given as “antagonist activity”. Further, in test [3], the “activity against KA, AMPA, and NMDA iGlu receptors” value was “substantially inactive”.

Turning to `N[C@@]1(C(=O)O)CO[C@H]2[C@H](C(=O)O)[C@H]21` [LY379268, (−)-2-oxa-4-aminobicyclohexane-4,6-dicarboxylic acid], the EC50 at human mGlu2 receptors and on human mGlu3 receptors was less than 0.01 µM each time.

For the compound `CC(=O)N[C@@H](CS)C(=O)O` [NAC, N-acetyl-L-cysteine], the EC50 in test [2] stood at 5.55 µM.

For the compound `O=C(Nc1ccncc1)c1cc([N+](=O)[O-])ccc1Cl` [T0070907], the EC50 in test [4] is 5.4 µM.

The compound `CC1(COc2ccc(CC3SC(=O)NC3=O)cc2)CCCCC1` (stereo not shown) [ciglitazone, 5-{4-[(1-methylcyclohexyl)methoxy]benzyl}-1,3-thiazolidine-2,4-dione] gave an EC50 in test [2] of 0.1 µM.

In test [2], `CC(C)(Oc1ccc(C2CC2(Cl)Cl)cc1)C(=O)O` (stereo not shown) [ciprofibrate] showed an EC50 of 2.1 µM.

On to `CCOC(=O)C(C)(C)Oc1ccc(Cl)cc1` [clofibrate], for which the 50% effective concentration (EC50) in test [2] is 2.6 µM.

Turning to `Nc1c2c(nc3ccccc13)CCCC2` [tacrine], the midpoint of the response in [2], the EC50, lay at 12.6 µM.

As to `Cc1c(C)c2c(c(C)c1O)CCC(C)(COc1ccc(CC3SC(=O)NC3=O)cc1)O2` (stereo not shown) [troglitazone, 5-(4-[(6-hydroxy-2,5,7,8-tetramethylchroman-2-yl)methoxy]benzyl)thiazolidine-2,4-dione], the EC50 in [2] came out at 10 µM.

(Values after US20100184806A1, “MODULATION OF NEUROGENESIS BY PPAR AGENTS” (BrainCells, Inc., priority 2006, published 2010).)
